{
  "source": "patent US11433071B2",
  "about": "“Heterocyclylamines as PI3K inhibitors” (Incyte Corporation, priority 2011, dated 2022)",
  "molecular_target": "PI3Kδ (p110δ/p85α) (Homo sapiens (Human), UniProt O00329)",
  "sequence (O00329 whole entry)": "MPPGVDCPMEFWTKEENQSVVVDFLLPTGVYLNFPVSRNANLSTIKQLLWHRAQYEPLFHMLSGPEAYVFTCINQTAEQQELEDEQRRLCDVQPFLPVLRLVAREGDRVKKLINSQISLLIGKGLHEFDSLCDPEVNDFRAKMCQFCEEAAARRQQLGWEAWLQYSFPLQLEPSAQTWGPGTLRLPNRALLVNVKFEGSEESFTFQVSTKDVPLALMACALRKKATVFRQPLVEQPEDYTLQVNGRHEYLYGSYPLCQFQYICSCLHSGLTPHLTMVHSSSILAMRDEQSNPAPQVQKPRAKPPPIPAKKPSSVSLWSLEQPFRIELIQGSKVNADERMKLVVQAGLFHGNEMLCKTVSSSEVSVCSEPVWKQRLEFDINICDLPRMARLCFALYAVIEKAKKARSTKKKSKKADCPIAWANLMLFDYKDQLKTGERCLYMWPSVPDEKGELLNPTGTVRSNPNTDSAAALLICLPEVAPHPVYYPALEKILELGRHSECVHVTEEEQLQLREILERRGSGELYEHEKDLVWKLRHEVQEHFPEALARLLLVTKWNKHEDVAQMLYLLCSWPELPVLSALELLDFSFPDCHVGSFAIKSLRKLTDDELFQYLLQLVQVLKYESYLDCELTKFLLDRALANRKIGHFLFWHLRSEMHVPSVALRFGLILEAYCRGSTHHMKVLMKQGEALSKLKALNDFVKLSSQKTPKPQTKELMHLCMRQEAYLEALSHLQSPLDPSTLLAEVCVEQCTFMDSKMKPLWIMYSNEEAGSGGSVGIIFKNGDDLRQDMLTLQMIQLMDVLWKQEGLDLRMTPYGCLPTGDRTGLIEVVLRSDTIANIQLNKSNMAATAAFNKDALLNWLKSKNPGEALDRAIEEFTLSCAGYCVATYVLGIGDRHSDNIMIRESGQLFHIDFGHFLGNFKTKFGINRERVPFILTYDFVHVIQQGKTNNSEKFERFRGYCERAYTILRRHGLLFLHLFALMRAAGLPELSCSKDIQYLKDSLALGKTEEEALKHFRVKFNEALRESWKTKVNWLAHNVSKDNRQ",
  "sequence (P27986 whole entry partner)": "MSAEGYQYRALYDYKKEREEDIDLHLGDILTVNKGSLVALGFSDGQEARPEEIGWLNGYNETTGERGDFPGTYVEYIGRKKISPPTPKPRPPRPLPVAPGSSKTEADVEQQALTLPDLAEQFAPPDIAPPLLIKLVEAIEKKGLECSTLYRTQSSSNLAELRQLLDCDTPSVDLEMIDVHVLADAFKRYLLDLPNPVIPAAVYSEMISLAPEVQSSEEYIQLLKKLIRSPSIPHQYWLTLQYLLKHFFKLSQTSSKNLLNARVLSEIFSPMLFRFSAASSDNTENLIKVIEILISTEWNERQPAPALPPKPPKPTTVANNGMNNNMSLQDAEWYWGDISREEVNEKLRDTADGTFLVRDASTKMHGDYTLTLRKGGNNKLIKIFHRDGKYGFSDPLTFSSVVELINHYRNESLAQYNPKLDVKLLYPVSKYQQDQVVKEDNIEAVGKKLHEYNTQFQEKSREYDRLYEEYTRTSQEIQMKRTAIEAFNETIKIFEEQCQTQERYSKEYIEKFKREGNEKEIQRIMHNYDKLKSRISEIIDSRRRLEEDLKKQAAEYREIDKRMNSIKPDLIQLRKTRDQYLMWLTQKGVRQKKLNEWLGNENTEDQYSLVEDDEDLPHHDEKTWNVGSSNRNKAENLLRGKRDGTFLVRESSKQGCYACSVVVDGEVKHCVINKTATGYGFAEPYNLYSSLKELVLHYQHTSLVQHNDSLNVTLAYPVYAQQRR",
  "assay": "PI3Kδ scintillation proximity assay (Example A3)",
  "format": "biochemical",
  "settings": "assay not given",
  "experimental": "[γ-^33P]ATP (10 mCi/mL) was purchased from Perkin-Elmer (Waltham, Mass.). […] PI3Kδ (p110δ/p85α) was purchased from Millipore (Bedford, Mass.). ATP, MgCl2, DTT, EDTA, MOPS and CHAPS were purchased from Sigma-Aldrich (St. Louis, Mo.). Wheat Germ Agglutinin (WGA) YSi SPA Scintillation Beads was purchased from GE healthcare life sciences (Piscataway, N.J.).\nThe kinase reaction was conducted in polystyrene 384-well matrix white plate from Thermo Fisher Scientific in a final volume of 25 μL. Inhibitors were first diluted serially in DMSO and added to the plate wells before the addition of other reaction components. The final concentration of DMSO in the assay was 0.5%. The PI3K assays were carried out at room temperature in 20 mM MOPS, pH 6.7, 10 mM MgCl2, 5 mM DTT and CHAPS 0.03%. Reactions were initiated by the addition of ATP, the final reaction mixture consisted of 20 μM PIP2, 20 μM ATP, 0.2 μCi [γ-^33P] ATP, 4 nM PI3Kδ. […] 25 mM EDTA, 400 µM ATP. The final concentration of SPA beads was 1.0 mg/mL. After the plate sealing, plates were shaken overnight at room temperature and centrifuged at 1800 rpm for 10 minutes, the radioactivity of the product was determined by scintillation counting on Topcount (Perkin-Elmer). IC50 determination was performed by fitting the curve of percent control activity versus the log of the inhibitor concentration using the GraphPad Prism 3.0 software.",
  "data": [
    {"smiles": "CCOc1c(C(C)n2nc(C)c3c(N)ncnc32)cc(Cl)c(F)c1C1CNC(=O)O1", "note": "(stereo not shown) [Example 357, 5-{3-[1-(4-amino-3-methyl-1H-pyrazolo[3,4-d]pyrimidin-1-yl)ethyl]-5-chloro-2-ethoxy-6-fluorophenyl}-1,3-oxazolidin-2-one]", "values": [
      {"measurement": "relative activity among the four separated stereoisomers (peaks 1-4)", "value": "most active enantiomer"}
    ]}
  ]
}
